The target of the assay is T1, IaNaR (Indibacter alkaliphilus, UniProt S2D3K4).
T1 construct: gene A33Q_3728; C-terminal His tag, E. coli BL21, vector pKA001, DDM-solubilised, Ni-NTA purified, reconstituted in Egg-PC liposomes
T1 sequence (S2D3K4 1-279): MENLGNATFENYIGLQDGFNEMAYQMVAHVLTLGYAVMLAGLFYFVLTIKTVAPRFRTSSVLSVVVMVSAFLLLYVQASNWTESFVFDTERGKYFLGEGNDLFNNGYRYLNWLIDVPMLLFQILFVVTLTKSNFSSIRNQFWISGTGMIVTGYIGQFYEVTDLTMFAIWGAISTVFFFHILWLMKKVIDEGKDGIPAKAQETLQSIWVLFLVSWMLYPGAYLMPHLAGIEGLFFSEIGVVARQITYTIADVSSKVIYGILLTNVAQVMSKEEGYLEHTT
Kind of assay: time-resolved cryo-Raman ([…] nm preresonance) and absorption spectroscopy. Format: binding. The conditions noted are these: covalent; protonated Schiff base to helix G lysine; dark state all-trans; humidified film, 268 K, pH 8.0, NaCl.

`CC1=C(/C=C/C(C)=C/C=C/C(C)=C/C=O)C(C)(C)CCC1` [retinal]: the “time-resolved cryo-Raman (785 nm preresonance) and absorption spectroscopy” value is “the vibrational modes of the RSB chromophore were selectively observed due to the preresonance enhancement”.
